Assay results published in patent US20230149515A1, “INHIBITION OF SARS-COV-2 VIRAL ENTRY THROUGH ORAL ADMINISTRATION OF L[…] USES THEREOF” (priority 2020, published 2023).

Tested on: SARS-CoV-2
Assay type: cell-based
Conditions: positive control; Huh7 cells; FIG. 1 (50 nanomolar Remdesivir)

In the case of `CCC(CC)COC(=O)[C@H](C)N[P@](=O)(OC[C@H]1O[C@@](C#N)(c2ccc3c(N)ncnn23)[C@H](O)[C@@H]1O)Oc1ccccc1` [Remdesivir, reference compound], the “efficacy in SARS-CoV-2 infectivity assay” value is reported as 100%.
